PMC12339163, “Combining Plant Bioactives With Antibiotics for Enhanced Antibiofilm Activity Against Uropathogenic Staphylococcus spp. and Cytotoxicity Evaluation” (Advances in Pharmacological and Pharmaceutical Sciences, 2025)
Values after ≈ are worked out from the molar mass of the structure shown. Values joined by “and” are separate entries in the source; they are usually repeats but may differ in a detail not shown here. Identical values can stand only once. Like-named read-outs stand apart in the source and are kept apart here.

Key:
S. saprophyticus = assay: MIC and MBC, broth microdilution; assay type: cell-based, Staphylococcus saprophyticus; settings: Staphylococcus saprophyticus, geometric mean, S. saprophyticus (n = 3); for MBC: read-out: MBC; for MIC: read-out: MIC
Experimental: (§1) Seven clinical isolates of Staphylococcus spp. including 2 S. aureus, 3 S. saprophyticus, and 2 S. epidermidis were used. They were isolated from urine samples in our previous study. Two reference strains (S. aureus ATCC1026 and S. epidermidis ATCC35984) obtained from the American Type Culture Collection were also included. They were kept in the mixture of glycerol and Mueller Hinton Broth (MHB) (1:1) at −20°C, and the activation was achieved using the streak technique on Mueller Hinton agar (MHA) medium.
(§2) The MICs of ATBs and NPs were determined by the broth microdilution method as previously described. NPs and ATBs were, respectively, prepared at 4096 µg/mL and 512 µg/mL and serially diluted twofold with MHB in a 96-well microplate at a volume of 100 µL. Then, the wells were filled with 100 µL of inoculum (1.5 × 10^6 CFU/mL) to give final concentrations ranging from 1024 µg/mL to 0.5 µg/mL and 128 µg/mL to 0.062 µg/mL of NPs and ATBs, respectively. The microplates were incubated for 24 h at 37°C. Wells containing only bacterial inoculum were used as the negative control. After incubation, a volume of 40 µL of INT solution (0.2 mg/mL) was added to each well, and the microplate was incubated at 37°C for 30 min. Viable bacteria cells change the yellow dye of INT to a pink color. The MIC was considered as the lowest concentration of the sample at which there was no change in the coloration of the medium, corresponding to the complete inhibition of microbial growth.
(§3) All tests were performed in triplicate.

S. epidermidis = assay: MIC and MBC, broth microdilution; assay type: cell-based, Staphylococcus epidermidis; settings: Staphylococcus epidermidis, geometric mean, S. epidermidis (n = 3); for MBC: read-out: MBC; for MIC: read-out: MIC
Experimental: as §1, §2, §3

S. aureus biofilm [1] = assay: Biofilm inhibition assay (MBIC, MTT); assay type: cell-based, Staphylococcus aureus; settings: Staphylococcus aureus, 24 h; geometric mean, S. aureus (n = 3)
Experimental: (§4) The biofilm formation inhibitory activity of NPs and ATBs was carried out according to the method previously described. A total of 100 µL of bacterial inoculum (1.5 × 10^6 CFU/mL) was used, and 100 µL of each sample was added to the microplate to achieve final concentrations ranging from 0.25 µg/mL to 128 µg/mL for ATBs and from 8 µg/mL to 1024 µg/mL for NPs. Then, the microplate was incubated at 37°C for 24 h. After incubation, the plates were gently emptied and washed three times with a phosphate buffer solution at pH 7.2. Then, the MTT solution (0.5 mg/mL) prepared in PBS was introduced into each well, and the microplate was further incubated at 37°C for 24 h. Untreated wells containing bacterial suspension and MHB supplemented with 1% glucose were considered positive controls, and wells containing only MHB+1% glucose without bacteria were used as blanks. After incubation, the MTT solution was aspirated, then 150 µL of DMSO was introduced to dissolve the formazan crystal formed by viable bacteria, and the optical density (OD) was measured at 570 nm using a microplate reader (VERSA-max). The percentage of biofilm inhibition was calculated using the formula below, and the minimal biofilm inhibitory concentration (MBIC) was recorded as the lowest concentration of NPs or ATBs that inhibited 100% of biofilm:(1) % biofilm inhibition=ODcontrol−ODblank−ODtest−ODblank/ODcontrol−ODblank×100.

S. saprophyticus biofilm [2] = assay: Biofilm inhibition assay (MBIC, MTT); assay type: cell-based, Staphylococcus saprophyticus; settings: Staphylococcus saprophyticus, 24 h; geometric mean, S. saprophyticus (n = 3)
Experimental: as §4

S. epidermidis biofilm [3] = assay: Biofilm inhibition assay (MBIC, MTT); assay type: cell-based, Staphylococcus epidermidis; settings: Staphylococcus epidermidis, 24 h; geometric mean, S. epidermidis (n = 3)
Experimental: as §4

S. aureus biofilm [4] = assay: Biofilm eradication assay (MBEC, MTT); assay type: cell-based, Staphylococcus aureus; settings: Staphylococcus aureus, 24 h; geometric mean, S. aureus (n = 3)
Experimental: (§5) The determination of the biofilm eradication potential of NPs and ATBs was performed as previously described. Briefly, 100 µL of bacterial inoculum (1.5 × 10^6 CFU/mL) and 100 µL of MHB + 1% glucose were introduced into the microplate, incubated at 37°C for 24 h, and the microplate was gently emptied and washed three times with PBS. Then, 200 µL of ATBs or NPs at respective concentrations ranging from 8 to 1024 µg/mL and from 16 to 2048 µg/mL were incubated at 37°C for 24 h. Once incubation was completed, the microplate was processed as described above, and the percentage of biofilm eradication was calculated using the formula below. The minimal biofilm eradicating concentration (MBEC) was recorded as the lowest concentration of the test sample that reduces 100% of biofilm:(2) % biofilm eradication=ODcontrol−ODblank−ODtest−ODblank/ODcontrol−ODblank×100.

S. saprophyticus biofilm [5] = assay: Biofilm eradication assay (MBEC, MTT); assay type: cell-based, Staphylococcus saprophyticus; settings: Staphylococcus saprophyticus, 24 h; geometric mean, S. saprophyticus (n = 3)
Experimental: as §5

S. epidermidis biofilm [6] = assay: Biofilm eradication assay (MBEC, MTT); assay type: cell-based, Staphylococcus epidermidis; settings: Staphylococcus epidermidis, 24 h; geometric mean, S. epidermidis (n = 3)
Experimental: as §5

[7] = system: Staphylococcus aureus biofilm; assay: Checkerboard combination assay, biofilm inhibition; assay type: cell-based; settings: S. aureus biofilm inhibition; for MBIC alone, NPs: natural product alone
Experimental: (§6) The effect of the combination of ATBs with NPs on biofilm formation was evaluated by determining the FICI, as described above for planktonic cells, except that the MHB was supplemented with 1% glucose.
(§7) The lowest MBICs of ATBs or NPs that inhibited metabolic activity in the biofilm were determined as described above. The FICI was used to perform the effect of combination and calculated as follows: FICI: (MBIC of ATBs in combinations/MBIC of ATBs alone) + (MBIC of NP in the combinations/MBIC of NP alone). FICI was interpreted as indicated above.

[8] = system: Staphylococcus epidermidis biofilm; assay: Checkerboard combination assay, biofilm inhibition; assay type: cell-based
Experimental: as §6, §7

[9] = system: Staphylococcus saprophyticus biofilm; assay: Checkerboard combination assay, biofilm inhibition; assay type: cell-based
Experimental: as §6, §7

[10] = system: Staphylococcus epidermidis biofilm; assay: Checkerboard combination assay, biofilm eradication; assay type: cell-based; settings: S. epidermidis biofilm eradication, mean MBEC
Experimental: The effect of the combination of ATBs with NPs on the preformed biofilm was evaluated by determining the FICI, as described above for biofilm formation, with slight modifications. After biofilm formation for 24 h, the plate was gently emptied and washed three times with PBS. Then, 50 µL of ATBs and 50 µL of NPs were introduced to the plate. The final concentration ranges from 0.0625 to 128 µg/mL and from 4 to 512 µg/mL for ATBs and NPs, respectively, and is incubated at 37°C for 24 h. After incubation, the medium was gently removed, and the plate was washed three times with PBS. At the end of the incubation time, the MTT reduction assay was performed, and the MBEC was determined. To assess the effect of the combination, the FICI was calculated and interpreted as described above.

[11] = S. saprophyticus, biofilm inhibition, mean

SMILES | MIC (S. saprophyticus) [µg/mL] | MIC (S. epidermidis) [µg/mL] | minimal effective concentration (S. aureus biofilm [1]) [µg/mL] | minimal effective concentration (S. saprophyticus biofilm [2]) [µg/mL] | minimal effective concentration (S. epidermidis biofilm [3]) [µg/mL] | minimal effective concentration (S. aureus biofilm [4]) [µg/mL] | minimal effective concentration (S. saprophyticus biofilm [5]) [µg/mL] | minimal effective concentration (S. epidermidis biofilm [6]) [µg/mL] | MBC (S. saprophyticus; natural products) [µg/mL] | MBC (S. epidermidis; natural products) [µg/mL] | also measured
CC1(C)S[C@@H]2[C@H](NC(=O)[C@H](N)c3ccc(O)cc3)C(=O)N2[C@H]1C(=O)O [Amoxicillin, amoxicillin] | 22 (≈ 60.2 µM) | 26.8 (≈ 73.4 µM) | 1.5 | 9 | 2.08 | 37.3 | 9.33 | 16 | – | – | MBC (S. saprophyticus; antibiotics): > 128 µg/mL; MBC (S. epidermidis; antibiotics): > 128 µg/mL; MBIC alone, ATB ([7]; antibiotic alone): 1.5 µg/mL; MBIC alone, ATB ([8]; S. epidermidis, biofilm inhibition, mean): 2.08 µg/mL; MBIC alone, ATB ([8]; antibiotic alone, S. epidermidis biofilm inhibition): 2.08 µg/mL; MBIC alone, ATB [9, 11]: 8.33 µg/mL; MBIC alone, ATB ([9]; antibiotic alone, S. saprophyticus biofilm inhibition): 8.33 µg/mL; MBEC Alone ATB ([10]; antibiotic alone): 16 µg/mL
O=c1c(O)c(-c2ccc(O)c(O)c2)oc2cc(O)cc(O)c12 [Quercetin, quercetin] | 341 (≈ 1130 µM) | 512 (≈ 1690 µM) | 512 | 427 | 512 | 128 | 171 | 299 | > 1020 | > 1020 | MBIC alone, NPs ([7]; listed as Que): 426.66 µg/mL and 512 µg/mL and 362.66 µg/mL; MBIC alone, NPs ([8]; natural product alone, S. epidermidis biofilm inhibition, listed as Que): 512 µg/mL and 384 µg/mL; MBIC alone, NPs ([9]; natural product alone, S. saprophyticus biofilm inhibition, listed as Que): 426.66 µg/mL and 512 µg/mL
COc1ccc2cc3[n+](cc2c1OC)CCc1cc2c(cc1-3)OCO2 [Berberine, berberine] | 149 | 213 | 171 | 85.3 | – | 149 | 171 | 171 | > 1020 | > 1020 | MBIC alone, NPs [7]: 170.66 µg/mL; MBIC alone, NPs [9, 11]: 106.66 µg/mL; MBIC alone, NPs ([9]; natural product alone, S. saprophyticus biofilm inhibition, listed as Ber): 74.66 µg/mL and 85.33 µg/mL and 106.66 µg/mL; MBEC Alone NPs ([10]; natural product alone, listed as Ber): 170.66 µg/mL and 149.33 µg/mL and 213.33 µg/mL
